Experimental data reported in US9598401B2, “Substituted heteroaryl compounds and methods of use thereof” (Sunshine Lake Pharma Co., Ltd., priority 2013, dated 2017).
Read-outs that look alike come from different tables or passages of the source.

Columns and labels:
serotonin transporter = serotonin transporter (Rattus norvegicus (Rat), UniProt P31652); assay: Inhibitory effect on [3H]5-HT uptake in rat synaptosome; format: biochemical; settings: rat brain synaptosomes, 37° C., 15 minutes, 0.1 μCi [3H]5-HT
serotonin transporter, sequence (P31652 whole entry): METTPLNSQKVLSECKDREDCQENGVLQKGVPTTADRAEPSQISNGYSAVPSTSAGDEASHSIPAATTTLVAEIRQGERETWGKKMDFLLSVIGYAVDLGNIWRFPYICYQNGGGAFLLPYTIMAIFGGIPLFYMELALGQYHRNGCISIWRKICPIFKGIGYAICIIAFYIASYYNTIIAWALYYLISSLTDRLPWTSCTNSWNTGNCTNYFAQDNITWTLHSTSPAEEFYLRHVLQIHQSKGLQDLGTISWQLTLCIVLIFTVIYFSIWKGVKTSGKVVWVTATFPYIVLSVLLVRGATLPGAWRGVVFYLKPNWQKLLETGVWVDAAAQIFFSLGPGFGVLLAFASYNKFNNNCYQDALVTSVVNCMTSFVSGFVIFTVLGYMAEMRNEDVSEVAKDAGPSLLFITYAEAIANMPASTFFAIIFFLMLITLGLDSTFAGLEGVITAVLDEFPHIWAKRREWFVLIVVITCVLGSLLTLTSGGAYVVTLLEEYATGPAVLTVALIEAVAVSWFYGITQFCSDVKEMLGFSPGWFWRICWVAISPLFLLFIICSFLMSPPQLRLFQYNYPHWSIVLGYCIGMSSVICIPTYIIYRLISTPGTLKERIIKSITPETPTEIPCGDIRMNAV
Description: The synaptosomes (150 μg) prepared from the rat brain were incubated at 37° C. for 15 minutes with 0.1 μCi [^3H]5-HT in the absence or presence of the test compound or the reference compound in a buffer solution containing 106.2 mM NaCl, 4.5 mM KCl, 2.25 mM MgSO4, 1.08 mM NaH2PO4, 22.5 mM NaHCO3, 9.9 mM glucose, 9 μM EGTA and 45 μM ascorbic acid (pH 7.4).
Inhibition of serotonin transporter in rat synaptosome was measured by the concentrations of [^3H]5-HT.

5-HT1A receptor = 5-HT1A receptor (Homo sapiens (Human), UniProt P08908); assay: Affinity for human 5-HT1A receptor ([3H]8-OH-DPAT binding, HEK-293 cell homogenates);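 note: Filter-retained radioactivity counted by scintillation, non-specific binding defined with 10 µM 8-OH-DPAT, Ki derived from percent inhibition of specific radioligand binding versus control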
5-HT1A receptor, sequence (P08908 whole entry): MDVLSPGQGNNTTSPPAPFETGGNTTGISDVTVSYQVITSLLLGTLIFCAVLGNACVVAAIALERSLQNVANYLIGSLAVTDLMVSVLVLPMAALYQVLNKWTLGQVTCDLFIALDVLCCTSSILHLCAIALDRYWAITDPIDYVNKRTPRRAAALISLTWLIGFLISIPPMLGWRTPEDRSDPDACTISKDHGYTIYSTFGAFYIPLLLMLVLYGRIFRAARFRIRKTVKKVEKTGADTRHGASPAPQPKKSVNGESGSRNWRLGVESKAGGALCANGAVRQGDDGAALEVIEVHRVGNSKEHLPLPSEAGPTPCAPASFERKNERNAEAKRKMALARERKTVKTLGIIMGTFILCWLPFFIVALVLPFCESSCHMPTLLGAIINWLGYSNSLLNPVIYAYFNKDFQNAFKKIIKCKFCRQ
Description: The non-specific binding value was determined by incubating the same mixture in the presence of 10 μM 8-OH-DPAT, which was used as the standard reference compound and tested in each experiment at several concentrations to obtain a competition curve.
Following the incubation, the samples were filtered rapidly under vacuum through glass fiber filter (GF/B, Packard) presoaked with 0.3% PEI and rinsed several times with ice-cold 50 mM Tris-HCl using a 96-sample cell harvester (Unifilter, Packard). The filters were dried and the retained radioactivity was measured in a scintillation counter (Topcount, Packard) using a scintillation cocktail (Microscint 0, Packard). The experimental results were expressed as a percent inhibition of the control radioligand specific binding, and Ki was the inhibition constant.

[1] = read-out: Ki, binding affinity for 5-HT1A receptor, 0.3 nM [3H]8-OH-DPAT, human HEK-293 cell homogenates, 22° C., 60 minutes

Compound | IC50 (serotonin transporter) [nM] | Ki (5-HT1A receptor; [1]) [nM] | Ki (5-HT1A receptor) [nM]
N#Cc1ccc2[nH]cc(CCCCN3CCN(c4nccc(C(F)(F)F)n4)CC3)c2c1 [Example 32, 3-(4-(4-(4-(Trifluoromethyl)pyrimidin-2-yl)piperazin-1-yl)butyl)-1H-indole-5-carbonitrile] | 10 | 0.7 | –
Cc1nc(N2CCN(CCCc3c[nH]c4ccc(C#N)cc34)CC2)sc1C#N [Example 48, 2-(4-(3-(5-Cyano-1H-indol-3-yl)propyl)piperazin-1-yl)-4-methylthiazole-5-carbonitrile] | 7.7 | 2.6 | –
COc1ccc2[nH]cc(CCCN3CCN(c4nc(C)cc(C)n4)CC3)c2c1 [Example 17, 3-(3-(4-(4,6-Dimethylpyrimidin-2-yl)piperazin-1-yl)propyl)-5-methoxy-1H-indole] | – | 0.29 | –
Cc1cc(C)nc(N2CCN(CCCCc3c[nH]c4ccc(C#N)cc34)CC2)n1 [Example 15, 3-(4-(4-(4,6-Dimethylpyrimidin-2-yl)piperazin-1-yl)butyl)-1H-indole-5-carbonitrile] | 6.9 | 2.9 | –
COc1cc(C)nc(N2CCN(CCCCc3c[nH]c4ccc(C#N)cc34)CC2)n1 [Example 21, 3-(4-(4-(4-Methoxy-6-methylpyrimidin-2-yl)piperazin-1-yl)butyl)-1H-indole-5-carbonitrile] | 2.6 | 0.65 | –
Cc1cc(C)nc(N2CCN(CCCCc3c[nH]c4ccc(F)cc34)CC2)n1 [Example 14, 3-(4-(4-(4,6-Dimethylpyrimidin-2-yl)piperazin-1-yl)butyl)-5-fluoro-1H-indole] | 12 | 1.7 | –
COc1cc(OC)nc(N2CCN(CCCCc3c[nH]c4ccc(Cl)cc34)CC2)n1 [Example 3, 5-Chloro-3-(4-(4-(4,6-dimethoxypyrimidin-2-yl)piperazin-1-yl)butyl)-1H-indole] | – | 1.1 | –
COc1cc(OC)nc(N2CCN(CCCCc3c[nH]c4ccccc34)CC2)n1 [Example 1, 3-(4-(4-(4,6-Dimethoxypyrimidin-2-yl)piperazin-1-yl)butyl)-1H-indole] | – | 3.3 | –
COc1cc(OC)nc(N2CCN(CCCc3c[nH]c4ccc(Cl)cc34)CC2)n1 [Example 8, 5-Chloro-3-(3-(4-(4,6-dimethoxypyrimidin-2-yl)piperazin-1-yl)propyl)-1H-indole] | 81 | 2 | –
N#Cc1ccc2[nH]cc(CCCN3CCN(c4ncc(F)cn4)CC3)c2c1 [Example 36, 3-(3-(4-(5-Fluoropyrimidin-2-yl)piperazin-1-yl)propyl)-1H-indole-5-carbonitrile] | 8.2 | – | –
CCOC(=O)c1sc(N2CCN(CCCCc3c[nH]c4ccc(C#N)cc34)CC2)nc1C [Example 39, Ethyl 2-(4-(4-(5-cyano-1H-indol-3-yl)butyl)piperazin-1-yl)-4-methylthiazole-5-carboxylate] | 2.9 | 0.79 | –
Fc1ccc2[nH]cc(CCCN3CCN(c4nccc(C(F)(F)F)n4)CC3)c2c1 [Example 33, 5-Fluoro-3-(3-(4-(4-(trifluoromethyl)pyrimidin-2-yl)piperazin-1-yl)propyl)-1H-indole] | 11 | 1 | –
Cc1cc(C)nc(N2CCN(CCCCc3c[nH]c4ccc(Cl)cc34)CC2)n1 [Example 13, 5-Chloro-3-(4-(4-(4,6-dimethylpyrimidin-2-yl)piperazin-1-yl)butyl)-1H-indole] | – | 1.8 | –
Cc1cc(C)nc(N2CCN(CCCc3c[nH]c4ccc(Cl)cc34)CC2)n1 [Example 18, 5-Chloro-3-(3-(4-(4,6-dimethylpyrimidin-2-yl)piperazin-1-yl)propyl)-1H-indole] | 31 | 0.71 | –
CC1CN(c2nccc(C(N)=O)n2)CCN1CCCc1c[nH]c2ccc(C#N)cc12 (centres unmarked) [Example 49, 2-(4-(3-(5-Cyano-1H-indol-3-yl)propyl)-3-methylpiperazin-1-yl)pyrimidine-4-carboxamide] | 0.28 | – | –
N#Cc1ccc2[nH]cc(CCCCN3CCN(c4ncc(F)cn4)CC3)c2c1 [Example 35, 3-(4-(4-(5-Fluoropyrimidin-2-yl)piperazin-1-yl)butyl)-1H-indole-5-carbonitrile] | 4.7 | – | –
N#Cc1ccnc(N2CCN(CCCCc3c[nH]c4ccc(F)cc34)CC2)n1 [Example 23, 2-(4-(4-(5-Fluoro-1H-indol-3-yl)butyl)piperazin-1-yl)pyrimidine-4-carbonitrile] | 6.1 | 18 | –
N#Cc1ccc2[nH]cc(CCCN3CCN(c4nccc(C(F)(F)F)n4)CC3)c2c1 [Example 34, 3-(3-(4-(4-(Trifluoromethyl)pyrimidin-2-yl)piperazin-1-yl)propyl)-1H-indole-5-carbonitrile] | 5.9 | – | 0.2
CC1CN(c2nccc(C(N)=O)n2)CCN1CCCCc1c[nH]c2ccc(C#N)cc12 (centres unmarked) [Example 50, 2-(4-(4-(5-Cyano-1H-indol-3-yl)butyl)-3-methylpiperazin-1-yl)pyrimidine-4-carboxamide] | 0.36 | – | –
Cc1cc(C)nc(N2CCN(CCCCc3c[nH]c4ccccc34)CC2)n1 [Example 11, 3-(4-(4-(4,6-Dimethylpyrimidin-2-yl)piperazin-1-yl)butyl)-1H-indole] | 82 | 1.1 | –
COc1ccc2[nH]cc(CCCN3CCN(c4nc(OC)cc(OC)n4)CC3)c2c1 [Example 7, 3-(3-(4-(4,6-Dimethoxypyrimidin-2-yl)piperazin-1-yl)propyl)-5-methoxy-1H-indole] | – | 0.19 | –
N#Cc1ccc2[nH]cc(CCCCN3CCN(c4nccc(C#N)n4)CC3)c2c1 [Example 24, 3-(4-(4-(4-Cyanopyrimidin-2-yl)piperazin-1-yl)butyl)-1H-indole-5-carbonitrile] | 1.9 | 6.2 | –
COc1cc(OC)nc(N2CCN(CCCc3c[nH]c4ccccc34)CC2)n1 [Example 6, 3-(3-(4-(4,6-Dimethoxypyrimidin-2-yl)piperazin-1-yl)propyl)-1H-indole] | 24 | 4.8 | –
COc1ccc2[nH]cc(CCCCN3CCN(c4nc(C)cc(C)n4)CC3)c2c1 [Example 12, 3-(4-(4-(4,6-Dimethylpyrimidin-2-yl)piperazin-1-yl)butyl)-5-methoxy-1H-indole] | – | 1.1 | –
Fc1ccc2[nH]cc(CCCCN3CCN(c4nccc(C(F)(F)F)n4)CC3)c2c1 [Example 31, 5-Fluoro-3-(4-(4-(4-(trifluoromethyl)pyrimidin-2-yl)piperazin-1-yl)butyl)-1H-indole] | 16 | 2 | –
N#Cc1ccnc(N2CCN(CCCc3c[nH]c4ccc(F)cc34)CC2)n1 [Example 25, 2-(4-(3-(5-Fluoro-1H-indol-3-yl)propyl)piperazin-1-yl)pyrimidine-4-carbonitrile] | 4.5 | 4 | –
COc1cc(OC)nc(N2CCN(CCCc3c[nH]c4ccc(F)cc34)CC2)n1 [Example 9, 3-(3-(4-(4,6-Dimethoxypyrimidin-2-yl)piperazin-1-yl)propyl)-5-fluoro-1H-indole] | 4.4 | 3.4 | –
COc1ccc2[nH]cc(CCCCN3CCN(c4nc(OC)cc(OC)n4)CC3)c2c1 [Example 2, 3-(4-(4-(4,6-Dimethoxypyrimidin-2-yl)piperazin-1-yl)butyl)-5-methoxy-1H-indole] | – | 1.4 | –
COc1cc(OC)nc(N2CCN(CCCCc3c[nH]c4ccc(C#N)cc34)CC2)n1 [Example 5, 3-(4-(4-(4,6-Dimethoxypyrimidin-2-yl)piperazin-1-yl)butyl)-1H-indole-5-carbonitrile] | 11 | 2.3 | –
